Measurements reported in patent US20110160280A1, “CANCER-RELATED GENES, CDCA5, EPHA7, STK31 AND WDHD1” (Oncotherapy Science, Inc., priority 2007, published 2011).

What was measured:
A549 cells [1] = assay: Time-lapse imaging (live cell imaging) after siRNA for WDHD1; type: cell-based, human; conditions: control cells divided about every 10 hours
Description: Cells were grown on a 35 mm glass-bottom dish in phenol red-free Dulbecco's modified Eagle's medium containing 10% fetal bovine serum (FBS). Cells were transfected with siRNA and subjected to time-lapse imaging using a computer-assisted fluorescence microscope (Olympus, LCV100) equipped with an objective lens (Olympus, UAPO 40×/340 N.A.=0.90), a halogen lamp, a red LED (620 nm), a CCD camera (Olympus, DP30), differential interference contrast (DIC) optical components, and interference filters. For DIC imaging, the red LED was used with a filter cube containing an analyzer. Image acquisition and analysis were performed by using MetaMorph 6.13 software (Universal Imaging, Media, Pa.).

mitotic cells = assay: Immunocytochemical analysis of mitotic cells after siRNA for WDHD1; type: cell-based; conditions: control si-LUC: normal metaphase figures
Description: Cultured cells were washed twice with PBS(−), fixed in 4% formaldehyde solution for 30 min at room temperature and then rendered permeable with PBS(−) containing 0.1% Triton X-100 for 3 min at room temperature. Nonspecific binding was blocked by Casblock (ZYMED, San Francisco, Calif.) for 10 min at room temperature for CDCA5 and WDHD1, by Casblock (ZYMED, San Francisco, Calif.) for 7 min at room temperature for EPHA7, 3% bovine serum albumin in PBS(−) for 7 min at room temperature for STK31. Cells were then incubated for 60 min (for CDCA5, EPHA7 or STK31) or 10 min (for WDHD1) at room temperature with primary antibodies diluted in PBS containing 3% BSA. After being washed with PBS(−), the cells were stained by a donkey anti-rabbit secondary antibody conjugated to Alexa488 (Molecular Probes) (for CDCA5 and EPHA7) or FITC-conjugated secondary antibody (Santa Cruz Biotechnology, Santa Cruz, Calif.) (for STK31 and WDHD1) at 1:1,000 dilutions for 60 min at room temperature. After another wash with PBS(−), each specimen was mounted with Vectashield (Vector Laboratories, Inc., Burlingame, Calif.) containing 4′,6-diamidino-2-phenylindole and visualized with Spectral Confocal Scanning Systems (TSC SP2 AOBS; Leica Microsystems, Wetzlar, Germany).

WDHD1 = assay: RNA interference assay: WDHD1 knockdown by RT-PCR; type: cell-based, human; conditions: A549, LC319 and TE9 cells
Description: Total RNA was extracted from cultured cells using Trizol reagent (Life Technologies, Inc. Gaithersburg, Md.) according to the manufacturer's protocol. Extracted RNAs were treated with DNase I (Nippon Gene, Tokyo, Japan) and reversely-transcribed using oligo (dT) primer and SuperScript II. The primer sets for amplification were as follows:
(§1) Small interfering RNA (siRNA) duplexes (Dharmacon, Inc., Lafayette, Colo.) (600 pM) were transfected into lung-cancer cell lines LC319 and A549 for CDCA5; NCI-H520 and SBC-5 for EPHA7; LC319 for WDHD1, and esophageal cancer cell line TE9 for WDHD1 using 30 μl of Lipofectamine 2000 (Invitrogen, Carlsbad, Calif.) following the manufacturer's protocol. The transfected cells were cultured for 7 days, and the number of colonies was counted by Giemsa staining, and viability of cells was evaluated by 3-(4,5-dimethylthiazol-2-yl)-2,5-diphenyltetrazolium bromide (MTT) assay (cell counting kit-8 solution; Dojindo Laboratories, Kumanoto, Japan), at 7 days after transfection. To confirm suppression of gene expression, semiquantitative RT-PCR was carried out with synthesized primers described above.

TE9 cells = assay: RNA interference assay (oligo based): colony formation and MTT assays; type: cell-based, human
Description: as §1

LC319 cells = assay: as above; type: cell-based, human
Description: as §1

A549 cells [2] = assay: as above; type: cell-based, human
A549 cells [3] = assay: Flow cytometry (cell cycle) after si-WDHD1; type: cell-based, human
Description: Cells were collected in PBS, and fixed in 70% cold ethanol for 30 minutes. After treatment with 100 μg/mL RNase (Sigma/Aldrich, St. Louis, Mo.), the cells were stained with 50 μg/mL propidium iodide (Sigma/Aldrich, St.) in PBS. Flow cytometry was done on a Becton Dickinson FACScan and analyzed by ModFit software (Verity Software House, Inc., Topsham, Me.). The cells selected from at least 20,000 ungated cells were analyzed for DNA content.

[4] = synchronized A549 cells after cell cycle release

5′-GGUAAUACGUGGACUCCUA UU-3′ (GGUAAUACGUGGACUCCUAUU; listed as RNA, chemistry not given here) [si-WDHD1-#2]
cell division and cell death (time-lapse microscopy) (A549 cells [1]): divided slowly and died shortly after cell division
chromosome congression in mitotic cells (mitotic cells): chromosomes failed to congress at the spindle midzone
WDHD1 knockdown effect (RT-PCR) (WDHD1): knockdown effect was confirmed
number of TE9 cells (MTT and colony-formation assays), siRNA against WDHD1 (TE9 cells): drastic reduction in the number of cells
number of LC319 cells (MTT and colony-formation assays), siRNA against WDHD1 (LC319 cells): drastic reduction in the number of cells
number of A549 cells (MTT and colony-formation assays), siRNA against WDHD1 (A549 cells [2]): drastic reduction in the number of cells
number of cells in S phase (A549 cells [3]; A549 cells, 24˜72 hours after transfection): continuously decreased
proportion of cells in G0/G1 phase (A549 cells [3]; A549 cells, 48˜72 hours after transfection): increased
number of cells in G0/G1 phase (A549 cells [3]; [4]): increased
progression of S phase (A549 cells [3]; [4]): delayed
